In paper PMC6220303 (EMBO Molecular Medicine, 2018):
Read-outs that look alike come from different tables or passages of the source.

Assays:
logD determination = type: physicochemical; conditions: partition coefficient octanol/buffer pH 6.8
Description: (§1) Cellular Aβ release assays were done in CHO cells stably transfected with human wild‐type and human APP were done as described (Neumann et al, 2015). Determinations of logD, pKa, and binding to brain homogenates were done internally at Novartis, Basel. Plasma protein binding was determined by equilibrium dialysis using diluted plasma from the corresponding species. MDR‐1‐MDCK cells were obtained from Prof. A. Berns, Netherlands Cancer Institute, Amsterdam NL, and bi‐directional transport measurements were done as described (Rueeger et al, 2011). Receptor binding assays were done against an internal receptor panel and externally at Ricerca Biosciences, Peitou, Taiwan. In vitro binding and cellular patch clamp assays for hERG were done at Preclinical Safety, Novartis, Basel.

dogs = test: Cardiovascular safety pharmacology in dogs; type: in vivo, dog
[1] = type: in vivo; conditions: rat, 15.4 mg/kg oral
Aβ40 and Aβ42 in dog CSF = Aβ40 and Aβ42 in dog CSF after single oral dose, PK/PD modeling; type: in vivo; conditions: Canis lupus familiaris
Description: Therefore, we measured Aβ40 in rat brain tissue 4 h after oral administration over a range of doses. […] In addition, the effect‐over‐time curves for brain and CSF almost completely superimposed, showing that Aβ pharmacodynamics in CSF mirrors very well that in brain tissue.
Electrochemiluminescence immunoassays (Mesoscale Diagnostics, Rockville, MD, USA) were used to determine Aβ38, Aβ40, Aβ42, sAPPα, and sAPPβ. For studies in normal mice and rats, the endogenous Aβ40 was extracted from the brain homogenate with 1% Triton X‐100, and the 4G8‐based assay kit was used for quantification according to the manufacturer's instructions. CSF was collected from the cisterna magna and also analyzed using the 4G8 kit. For studies in dogs, CSF was collected via a ventricular port, and the 6E10‐based Mesoscale Diagnostics kit for Aβ was used. For studies in APP23 mice, Aβ40 and Aβ42 were determined after extraction with 70% formic acid and subsequent neutralization.

clinical = type: in vivo, human; conditions: for Mean concentration: AUC divided by 24 hours; for concentration at 3 months: read-out: steady-state plasma level
Description: The lower limit of quantification (LLOQ) was 1 ng/ml in plasma and 2 ng/ml in urine and CSF, except for the 3‐month study where the method for CSF was more sensitive (LLOQ 0.1 ng/ml). Plasma PK parameters were calculated using actual recorded sampling times and non‐compartmental methods with Phoenix WinNonlin version 6.4 (Certara, Inc., Princeton, NJ, USA).
For further details, see the Appendix Table S10 in Appendix and the accompanying clinical protocols synopsis (Appendix Table S11).

[2] = target: Monoamine transporter VMAT2 (Oryctolagus cuniculus, UniProt G1T2K3); test: Receptor panel binding; design: species or system Rabbit; conditions: read-out: Inhibition at 10 µM
Sequence of Monoamine transporter VMAT2 (G1T2K3 1-509): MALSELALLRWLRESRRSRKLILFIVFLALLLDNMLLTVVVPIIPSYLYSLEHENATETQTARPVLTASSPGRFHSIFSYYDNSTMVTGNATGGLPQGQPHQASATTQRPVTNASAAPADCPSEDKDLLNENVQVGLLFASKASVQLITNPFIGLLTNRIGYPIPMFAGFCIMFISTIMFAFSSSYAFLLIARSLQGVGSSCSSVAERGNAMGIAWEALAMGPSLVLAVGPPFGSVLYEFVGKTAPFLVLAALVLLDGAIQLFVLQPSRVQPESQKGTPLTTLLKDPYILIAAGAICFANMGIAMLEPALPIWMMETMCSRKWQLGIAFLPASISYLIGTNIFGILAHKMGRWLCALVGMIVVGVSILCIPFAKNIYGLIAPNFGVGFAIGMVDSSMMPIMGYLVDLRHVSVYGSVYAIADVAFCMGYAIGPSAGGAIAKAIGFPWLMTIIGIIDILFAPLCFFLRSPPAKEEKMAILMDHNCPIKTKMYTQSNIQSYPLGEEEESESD
Description: as §1

APP23 mice = conditions: APP23, mouse, in vivo, 3 months
[3] = single dose 1250 mg, adults (2), individual data points

C[C@@]1(c2nc(NC(=O)c3ncc(C(F)(F)F)cc3Cl)ccc2F)CO[C@@](C)(C(F)(F)F)C(N)=N1 [CNP520]
logD (logD determination): 3.5
free plasma C max (dogs; 200 mg/kg): 0.23 µM
effect on heart rate, ECG morphology, blood pressure (dogs; doses up to 200 mg/kg, and repeat dose toxicology studies (2, 4, 13, 39 weeks)): no effect on heart rate, ECG morphology, or blood pressure
peak concentration of unbound CNP520 in the brain [1]: 50 nM
IC50 (Aβ40 and Aβ42 in dog CSF; read-out: IC50 in vivo (free ED50), unbound CNP520 in dog blood, PK/PD modeling estimate): 0.0033 ± 3e-05 µM
IC50 (Aβ40 and Aβ42 in dog CSF; read-out: IC50 in vivo, total CNP520 in dog blood, PK/PD modeling estimate): 0.103 ± 0.0123 µM
Mean concentration (clinical; 2 mg, 3 months, Day 91): 0.0256 µM
Mean concentration (clinical; 10 mg, 3 months, Day 91): 0.123 µM
Mean concentration (clinical; 10 mg, 14 days, Day 14): 0.114 µM
Mean concentration (clinical; 30 mg, 14 days, Day 14): 0.292 µM
Mean concentration (clinical; 35 mg, 3 months, Day 91): 0.371 µM
Mean concentration (clinical; 85 mg, 3 months, Day 91): 0.91 µM
Mean concentration (clinical; 90 mg, 14 days, Day 14): 0.762 µM
Mean concentration (clinical; 300 mg, 14 days, Day 14): 2.312 µM
Tmax (clinical; both sexes, human, plasma, oral, 30 mg, 14 days, Day 14, median (min–max)): 3 h
Cmax (clinical; both sexes, human, plasma, oral, 30 mg, 14 days, Day 14, ≥ 60 years, mean (CV%)): 0.211 µg/mL
AUC(0-t) (clinical; both sexes, human, plasma, oral, 30 mg, AUC 0–24h, 30 mg, 14 days, Day 14, mean (CV%)): 3.58 µg·h/mL
half-life (clinical; both sexes, human, plasma, oral, participants ≥ 60 years of age, single dose, read-out: mean terminal T 1/2): 81.4 to 109 h
concentration at 3 months (clinical; both sexes, human, plasma, oral, 2-mg dose daily, participants ≥ 60 years): 0.0119 µg/mL
concentration at 3 months (clinical; both sexes, human, plasma, oral, 2-mg dose daily): 0.023 µM
concentration at 3 months (clinical; both sexes, human, plasma, oral, 85-mg dose daily, participants ≥ 60 years): 0.425 µg/mL
concentration at 3 months (clinical; both sexes, human, plasma, oral, 85-mg dose daily): 0.828 µM
free C max (clinical; human plasma, 85 mg, 3-month study): 0.048 µM
Tmax (clinical; human, plasma, oral, 2 mg, 3 months, Day 91, median (min–max)): 2.5 h
Cmax (clinical; human, plasma, oral, 2 mg, 3 months, Day 91, ≥ 60 years, mean (CV%)): 0.0166 µg/mL
AUC(0-t) (clinical; human, plasma, oral, 2 mg, AUC 0–24h, 2 mg, 3 months, Day 91, mean (CV%)): 0.313 µg·h/mL
Tmax (clinical; human, plasma, oral, 10 mg, 3 months, Day 91, median (min–max)): 2.5 h
Cmax (clinical; human, plasma, oral, 10 mg, 3 months, Day 91, ≥ 60 years, mean (CV%)): 0.081 µg/mL
Tmax (clinical; human, plasma, oral, 10 mg, 14 days, Day 14, median (min–max)): 2.53 h
Cmax (clinical; human, plasma, oral, 10 mg, 14 days, Day 14, ≥ 60 years, mean (CV%)): 0.0843 µg/mL
AUC(0-t) (clinical; human, plasma, oral, 10 mg, AUC 0–24h, 10 mg, 3 months, Day 91, mean (CV%)): 1.5 µg·h/mL
AUC(0-t) (clinical; human, plasma, oral, 10 mg, AUC 0–24h, 10 mg, 14 days, Day 14, mean (CV%)): 1.4 µg·h/mL
Cmax (clinical; human, plasma, oral, 10 mg, single dose 10 mg, adults (6), mean (%CV), read-out: Cmax): 0.0209 µg/mL
Tmax (clinical; human, plasma, oral, 10 mg, single dose 10 mg, adults (6), median (min–max), read-out: Tmax): 4 h
AUC(0-inf) (clinical; human, plasma, oral, 10 mg, single dose 10 mg, adults (n = 5), mean (%CV)): 0.948 µg·h/mL
half-life (clinical; human, plasma, oral, 10 mg, single dose 10 mg, adults (n = 5), mean (%CV), read-out: T1/2 (converted)): 61.3 h
Cmax (clinical; human, plasma, oral, 10 mg, single dose 10 mg, adults ≥ 60 years (6), mean (%CV), read-out: Cmax): 0.016 µg/mL
Tmax (clinical; human, plasma, oral, 10 mg, single dose 10 mg, adults ≥ 60 years (6), median (min–max), read-out: Tmax): 4.02 h
AUC(0-inf) (clinical; human, plasma, oral, 30 mg, single dose 30 mg, adults (12), mean (%CV)): 3.07 µg·h/mL
Cmax (clinical; human, plasma, oral, 30 mg, single dose 30 mg, adults (12), mean (%CV), read-out: Cmax): 0.0657 µg/mL
half-life (clinical; human, plasma, oral, 30 mg, single dose 30 mg, adults (12), mean (%CV), read-out: T1/2 (converted)): 64.3 h
Tmax (clinical; human, plasma, oral, 30 mg, single dose 30 mg, adults (12), median (min–max), read-out: Tmax): 3.5 h
Tmax (clinical; human, plasma, oral, 35 mg, 3 months, Day 91, median (min–max)): 2.5 h
Cmax (clinical; human, plasma, oral, 35 mg, 3 months, Day 91, ≥ 60 years, mean (CV%)): 0.237 µg/mL
AUC(0-t) (clinical; human, plasma, oral, 35 mg, AUC 0–24h, 35 mg, 3 months, Day 91, mean (CV%)): 4.45 µg·h/mL
AUC(0-t) (clinical; human, plasma, oral, 75 mg, AUC 0–72h, food effect, 75 mg Fasted (10), adults, mean (%CV)): 4.45 µg·h/mL
AUC(0-t) (clinical; human, plasma, oral, 75 mg, AUC 0–72h, food effect, 75 mg Fed (10), adults, mean (%CV)): 4.87 µg·h/mL
Cmax (clinical; human, plasma, oral, 75 mg, food effect, 75 mg Fasted (10), adults, mean (%CV), read-out: Cmax): 0.164 µg/mL
Tmax (clinical; human, plasma, oral, 75 mg, food effect, 75 mg Fasted (10), adults, median (min–max), read-out: Tmax): 3.5 h
Cmax (clinical; human, plasma, oral, 75 mg, food effect, 75 mg Fed (10), adults, mean (%CV), read-out: Cmax): 0.179 µg/mL
Tmax (clinical; human, plasma, oral, 75 mg, food effect, 75 mg Fed (10), adults, median (min–max), read-out: Tmax): 4.04 h
Tmax (clinical; human, plasma, oral, 85 mg, 3 months, Day 91, median (min–max)): 2.5 h
Cmax (clinical; human, plasma, oral, 85 mg, 3 months, Day 91, ≥ 60 years, mean (CV%)): 0.602 µg/mL
AUC(0-t) (clinical; human, plasma, oral, 85 mg, AUC 0–24h, 85 mg, 3 months, Day 91, mean (CV%)): 11.2 µg·h/mL
Tmax (clinical; human, plasma, oral, 90 mg, 14 days, Day 14, median (min–max)): 3 h
Cmax (clinical; human, plasma, oral, 90 mg, 14 days, Day 14, ≥ 60 years, mean (CV%)): 0.581 µg/mL
AUC(0-t) (clinical; human, plasma, oral, 90 mg, AUC 0–24h, 90 mg, 14 days, Day 14, mean (CV%)): 9.38 µg·h/mL
AUC(0-inf) (clinical; human, plasma, oral, 90 mg, single dose 90 mg, adults (6), mean (%CV)): 7.19 µg·h/mL
Cmax (clinical; human, plasma, oral, 90 mg, single dose 90 mg, adults (6), mean (%CV), read-out: Cmax): 0.138 µg/mL
half-life (clinical; human, plasma, oral, 90 mg, single dose 90 mg, adults (6), mean (%CV), read-out: T1/2 (converted)): 66.2 h
Tmax (clinical; human, plasma, oral, 90 mg, single dose 90 mg, adults (6), median (min–max), read-out: Tmax): 3.5 h
Cmax (clinical; human, plasma, oral, 90 mg, single dose 90 mg, adults ≥ 60 years (6), mean (%CV), read-out: Cmax): 0.172 µg/mL
Tmax (clinical; human, plasma, oral, 90 mg, single dose 90 mg, adults ≥ 60 years (6), median (min–max), read-out: Tmax): 2.02 h
Tmax (clinical; human, plasma, oral, 300 mg, 14 days, Day 14, median (min–max)): 2.51 h
Cmax (clinical; human, plasma, oral, 300 mg, 14 days, Day 14, ≥ 60 years, mean (CV% 25.1)): 1.71 µg/mL
AUC(0-t) (clinical; human, plasma, oral, 300 mg, AUC 0–24h, 300 mg, 14 days, Day 14, mean (CV%)): 28.3 µg·h/mL
AUC(0-inf) (clinical; human, plasma, oral, 300 mg, single dose 300 mg, adults (6), mean (%CV)): 23.5 µg·h/mL
Cmax (clinical; human, plasma, oral, 300 mg, single dose 300 mg, adults (6), mean (%CV), read-out: Cmax): 0.498 µg/mL
half-life (clinical; human, plasma, oral, 300 mg, single dose 300 mg, adults (6), mean (%CV), read-out: T1/2 (converted)): 57.9 h
Tmax (clinical; human, plasma, oral, 300 mg, single dose 300 mg, adults (6), median (min–max), read-out: Tmax): 6 h
Cmax (clinical; human, plasma, oral, 300 mg, single dose 300 mg, adults ≥ 60 years (18), mean (%CV), read-out: Cmax): 0.44 µg/mL
Tmax (clinical; human, plasma, oral, 300 mg, single dose 300 mg, adults ≥ 60 years (18), median (min–max), read-out: Tmax): 5.04 h
AUC(0-inf) (clinical; human, plasma, oral, 750 mg, single dose 750 mg, adults (6), mean (%CV)): 90.1 µg·h/mL
Cmax (clinical; human, plasma, oral, 750 mg, single dose 750 mg, adults (6), mean (%CV), read-out: Cmax): 1.15 µg/mL
half-life (clinical; human, plasma, oral, 750 mg, single dose 750 mg, adults (6), mean (%CV), read-out: T1/2 (converted)): 83.8 h
Tmax (clinical; human, plasma, oral, 750 mg, single dose 750 mg, adults (6), median (min–max), read-out: Tmax): 2.5 h
Cmax (clinical; human, plasma, oral, 750 mg, single dose 750 mg, adults ≥ 60 years (20), mean (%CV), read-out: Cmax): 1.12 µg/mL
Tmax (clinical; human, plasma, oral, 750 mg, single dose 750 mg, adults ≥ 60 years (20), median (min–max), read-out: Tmax): 3 h
AUC(0-inf) (clinical; human, plasma, oral, 1250 mg, single dose 1250 mg, adults (2), individual data points): 168 µg·h/mL
Cmax (clinical; human, plasma, oral, 1250 mg, single dose 1250 mg, adults (2), individual data points, read-out: Cmax): 2.85 µg/mL
half-life (clinical; human, plasma, oral, 1250 mg, single dose 1250 mg, adults (2), individual data points, read-out: T1/2 (converted)): 76.4 h
Tmax (clinical; human, plasma, oral, 1250 mg, single dose 1250 mg, adults (2), individual data points, read-out: Tmax): 4 h
Tmax (clinical; human, plasma, oral, after dose, human pharmacokinetic studies, read-out: T max): 1 to 8 h
half-life (clinical; human, plasma, oral, healthy adult participants, single dose, read-out: mean terminal T 1/2): 61.3 to 83.8 h
AUCinf (clinical; [3]): 184 µg·h/mL
Cmax (clinical; [3]): 2.89 µg/mL
T1/2 (clinical; [3]): 86.1 h
Tmax (clinical; [3]): 8.00 h
unbound concentration of CNP520 in plasma (clinical; typically, at pharmacologically active doses in animals and humans): below 0.1 μM
inhibition at 10 µM [2]: 79%
Hemorrhage (H & E staining) % affected (APP23 mice): 7%
Hemorrhage (H & E staining) Grade 1, number of animals affected (APP23 mice): 1
Hemorrhage (H & E staining) Grade 2, number of animals affected (APP23 mice): 0
Hemosiderin (Perl’s staining) % affected (APP23 mice): 47%
Hemosiderin (Perl’s staining) Grade 1, number of animals affected (APP23 mice): 7
Hemosiderin (Perl’s staining) Grade 2, number of animals affected (APP23 mice): 0
